Tests used:
Type in all cases: biochemical
[1] = tested on: CK2; assay: Kinase profiling CK2; conditions: 100 micromolar inhibitor concentration; 100 is no change
Source text: (§1) Any value less that 25 is considered to be highly significant inhibition.

[2] = biological target: SRPK1 (Homo sapiens, UniProt Q96SB4); assay: Kinase profiling SRPK1; conditions: 100 micromolar inhibitor concentration, 100 is no change; for remaining activity at 100 µM: read-out: residual kinase activity, SRPK1
Source text: as §1

[3] = biological target: Src (Homo sapiens, UniProt P12931); assay: Kinase profiling Src; conditions: 100 micromolar inhibitor concentration, 100 is no change; for remaining activity at 100 µM: read-out: residual kinase activity, Src
Source text: as §1

[4] = biological target: JNK2 (Homo sapiens, UniProt P45984); assay: Kinase profiling JNK2; conditions: 100 micromolar inhibitor concentration, 100 is no change; for remaining activity at 100 µM: read-out: residual kinase activity, JNK2
Source text: as §1

[5] = biological target: PKCγ (Homo sapiens, UniProt P05129); assay: Kinase profiling PKCγ; conditions: 100 micromolar inhibitor concentration, 100 is no change; for remaining activity at 100 µM: read-out: residual kinase activity, PKCγ
Source text: as §1

[6] = biological target: T1, TTK (Homo sapiens, UniProt P33981); assay: Kinase profiling TTK; conditions: 100 micromolar inhibitor concentration, 100 is no change; for remaining activity at 100 µM: read-out: residual kinase activity, TTK
T1 sequence (P33981 1-857): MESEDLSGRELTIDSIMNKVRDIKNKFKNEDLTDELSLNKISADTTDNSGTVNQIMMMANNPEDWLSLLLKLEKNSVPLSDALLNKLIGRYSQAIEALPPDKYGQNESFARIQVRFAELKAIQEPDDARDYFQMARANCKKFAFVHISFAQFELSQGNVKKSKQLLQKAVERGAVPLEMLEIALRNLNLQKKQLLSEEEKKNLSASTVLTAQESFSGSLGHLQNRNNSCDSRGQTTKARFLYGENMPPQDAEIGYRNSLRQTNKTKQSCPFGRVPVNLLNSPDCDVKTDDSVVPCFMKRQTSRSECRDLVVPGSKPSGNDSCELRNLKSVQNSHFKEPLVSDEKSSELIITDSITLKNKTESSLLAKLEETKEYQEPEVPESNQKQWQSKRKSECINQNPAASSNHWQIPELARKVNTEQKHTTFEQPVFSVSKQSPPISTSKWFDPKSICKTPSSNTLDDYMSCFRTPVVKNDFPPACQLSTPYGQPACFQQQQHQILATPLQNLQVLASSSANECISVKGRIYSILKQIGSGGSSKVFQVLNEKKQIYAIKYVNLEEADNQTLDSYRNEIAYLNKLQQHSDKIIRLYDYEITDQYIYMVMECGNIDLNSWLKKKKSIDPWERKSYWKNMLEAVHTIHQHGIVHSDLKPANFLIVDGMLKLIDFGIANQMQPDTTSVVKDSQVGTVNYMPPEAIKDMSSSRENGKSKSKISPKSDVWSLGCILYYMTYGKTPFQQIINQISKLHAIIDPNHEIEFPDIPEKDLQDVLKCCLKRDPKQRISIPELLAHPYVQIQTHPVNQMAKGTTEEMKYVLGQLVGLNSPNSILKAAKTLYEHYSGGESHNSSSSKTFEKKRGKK
Source text: as §1

[7] = biological target: T2, LKB1 (Homo sapiens, UniProt Q15831); assay: Kinase profiling LKB1; conditions: 100 micromolar inhibitor concentration, 100 is no change; for remaining activity at 100 µM: read-out: residual kinase activity, LKB1
T2 sequence (Q15831 1-433): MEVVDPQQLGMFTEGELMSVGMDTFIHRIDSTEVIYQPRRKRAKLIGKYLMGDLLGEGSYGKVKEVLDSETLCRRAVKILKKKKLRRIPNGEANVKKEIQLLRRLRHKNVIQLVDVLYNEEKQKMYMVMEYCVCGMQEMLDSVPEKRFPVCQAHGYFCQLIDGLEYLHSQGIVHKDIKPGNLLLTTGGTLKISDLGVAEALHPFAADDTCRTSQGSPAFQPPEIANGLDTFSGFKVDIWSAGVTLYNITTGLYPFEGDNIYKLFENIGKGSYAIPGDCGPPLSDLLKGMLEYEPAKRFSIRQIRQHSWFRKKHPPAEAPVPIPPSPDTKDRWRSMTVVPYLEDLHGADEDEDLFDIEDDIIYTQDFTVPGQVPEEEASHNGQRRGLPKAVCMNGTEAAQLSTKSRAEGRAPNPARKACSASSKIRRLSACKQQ
T2 sequence (Q7RTN6 1-431 partner): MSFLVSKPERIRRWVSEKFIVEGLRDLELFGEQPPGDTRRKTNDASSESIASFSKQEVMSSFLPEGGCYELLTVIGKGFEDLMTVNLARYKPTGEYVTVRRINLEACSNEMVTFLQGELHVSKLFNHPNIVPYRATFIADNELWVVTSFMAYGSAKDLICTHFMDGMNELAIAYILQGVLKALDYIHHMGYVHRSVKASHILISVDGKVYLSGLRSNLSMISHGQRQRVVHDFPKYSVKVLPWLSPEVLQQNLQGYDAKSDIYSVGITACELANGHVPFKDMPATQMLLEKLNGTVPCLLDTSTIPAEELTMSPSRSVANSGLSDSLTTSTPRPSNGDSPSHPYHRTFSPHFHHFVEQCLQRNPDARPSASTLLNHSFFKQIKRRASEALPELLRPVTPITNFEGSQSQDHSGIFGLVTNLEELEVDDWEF
T2 sequence (Q9Y376 1-341 partner): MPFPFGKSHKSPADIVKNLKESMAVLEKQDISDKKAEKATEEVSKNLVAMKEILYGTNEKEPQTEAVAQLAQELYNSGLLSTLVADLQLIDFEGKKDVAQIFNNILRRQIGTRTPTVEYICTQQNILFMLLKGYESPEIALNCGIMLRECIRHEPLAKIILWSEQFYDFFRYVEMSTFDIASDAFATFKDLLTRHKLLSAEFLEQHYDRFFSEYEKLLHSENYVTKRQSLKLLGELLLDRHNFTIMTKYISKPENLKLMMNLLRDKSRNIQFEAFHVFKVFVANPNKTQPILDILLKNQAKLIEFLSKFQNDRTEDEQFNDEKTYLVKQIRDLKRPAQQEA
Source text: as §1

[8] = biological target: Lck (Homo sapiens, UniProt P06239); assay: Kinase profiling Lck; conditions: 100 micromolar inhibitor concentration, 100 is no change; for remaining activity at 100 µM: read-out: residual kinase activity, Lck
Source text: as §1

[9] = biological target: T3, PKCz (Homo sapiens, UniProt Q05513); assay: Kinase profiling PKCz; conditions: 100 micromolar inhibitor concentration, 100 is no change; for remaining activity at 100 µM: read-out: residual kinase activity, PKCz
T3 sequence (Q05513 1-592): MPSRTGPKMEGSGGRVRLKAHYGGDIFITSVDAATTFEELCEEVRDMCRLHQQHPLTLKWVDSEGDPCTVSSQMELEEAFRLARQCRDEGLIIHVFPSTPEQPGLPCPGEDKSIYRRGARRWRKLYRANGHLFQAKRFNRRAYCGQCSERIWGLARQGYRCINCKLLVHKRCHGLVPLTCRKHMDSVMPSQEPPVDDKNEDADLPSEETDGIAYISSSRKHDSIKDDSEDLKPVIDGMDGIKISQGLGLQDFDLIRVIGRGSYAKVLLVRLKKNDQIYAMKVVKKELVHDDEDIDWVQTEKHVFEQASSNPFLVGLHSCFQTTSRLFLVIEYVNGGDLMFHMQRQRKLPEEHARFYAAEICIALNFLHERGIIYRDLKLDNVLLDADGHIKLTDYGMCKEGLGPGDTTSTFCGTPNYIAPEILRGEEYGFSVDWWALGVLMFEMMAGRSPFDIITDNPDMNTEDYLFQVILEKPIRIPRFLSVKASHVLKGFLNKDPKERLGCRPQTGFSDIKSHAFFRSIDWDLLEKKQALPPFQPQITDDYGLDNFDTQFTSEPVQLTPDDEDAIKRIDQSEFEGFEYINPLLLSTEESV
Source text: as §1

Chain of JNK2 (P45984 whole entry, species assumed): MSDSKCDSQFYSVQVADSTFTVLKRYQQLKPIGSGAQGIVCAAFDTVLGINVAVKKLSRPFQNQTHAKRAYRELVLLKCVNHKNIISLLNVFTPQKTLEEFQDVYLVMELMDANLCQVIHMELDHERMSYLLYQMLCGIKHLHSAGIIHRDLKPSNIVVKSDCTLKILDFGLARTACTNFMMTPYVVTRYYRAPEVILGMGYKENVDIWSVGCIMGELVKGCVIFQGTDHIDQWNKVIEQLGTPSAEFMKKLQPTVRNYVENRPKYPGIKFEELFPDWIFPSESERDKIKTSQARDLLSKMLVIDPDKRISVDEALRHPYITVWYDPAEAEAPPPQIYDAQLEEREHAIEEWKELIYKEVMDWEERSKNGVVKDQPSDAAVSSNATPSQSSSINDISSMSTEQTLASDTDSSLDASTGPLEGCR
Chain of Src (P12931 whole entry, species assumed): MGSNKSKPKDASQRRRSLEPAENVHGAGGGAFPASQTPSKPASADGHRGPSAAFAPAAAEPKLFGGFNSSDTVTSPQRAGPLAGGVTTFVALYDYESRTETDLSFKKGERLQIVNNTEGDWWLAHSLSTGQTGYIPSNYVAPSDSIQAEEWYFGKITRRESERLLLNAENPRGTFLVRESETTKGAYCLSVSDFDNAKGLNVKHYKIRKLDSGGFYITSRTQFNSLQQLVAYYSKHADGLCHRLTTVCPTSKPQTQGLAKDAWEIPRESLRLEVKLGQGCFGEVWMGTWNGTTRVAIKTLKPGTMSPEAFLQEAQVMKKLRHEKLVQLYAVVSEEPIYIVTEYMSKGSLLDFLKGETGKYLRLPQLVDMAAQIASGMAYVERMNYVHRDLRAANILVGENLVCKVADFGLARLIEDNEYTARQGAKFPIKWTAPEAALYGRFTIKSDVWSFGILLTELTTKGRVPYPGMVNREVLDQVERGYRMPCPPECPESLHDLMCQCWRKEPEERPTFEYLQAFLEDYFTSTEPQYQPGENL
Chain of Lck (P06239 whole entry, species assumed): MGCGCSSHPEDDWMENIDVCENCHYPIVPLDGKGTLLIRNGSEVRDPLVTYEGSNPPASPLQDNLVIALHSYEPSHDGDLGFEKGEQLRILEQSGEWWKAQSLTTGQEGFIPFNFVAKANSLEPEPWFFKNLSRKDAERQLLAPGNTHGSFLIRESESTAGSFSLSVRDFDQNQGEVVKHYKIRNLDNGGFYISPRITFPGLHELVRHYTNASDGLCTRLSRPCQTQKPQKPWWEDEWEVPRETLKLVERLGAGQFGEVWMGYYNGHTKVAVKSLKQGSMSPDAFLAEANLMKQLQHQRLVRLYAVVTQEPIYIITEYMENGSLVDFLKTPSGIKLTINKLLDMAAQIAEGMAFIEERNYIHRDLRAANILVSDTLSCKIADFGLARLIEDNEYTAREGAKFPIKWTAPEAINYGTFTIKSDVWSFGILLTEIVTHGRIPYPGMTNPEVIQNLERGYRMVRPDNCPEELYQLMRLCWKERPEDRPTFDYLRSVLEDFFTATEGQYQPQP
Chain of SRPK1 (Q96SB4 whole entry, species assumed): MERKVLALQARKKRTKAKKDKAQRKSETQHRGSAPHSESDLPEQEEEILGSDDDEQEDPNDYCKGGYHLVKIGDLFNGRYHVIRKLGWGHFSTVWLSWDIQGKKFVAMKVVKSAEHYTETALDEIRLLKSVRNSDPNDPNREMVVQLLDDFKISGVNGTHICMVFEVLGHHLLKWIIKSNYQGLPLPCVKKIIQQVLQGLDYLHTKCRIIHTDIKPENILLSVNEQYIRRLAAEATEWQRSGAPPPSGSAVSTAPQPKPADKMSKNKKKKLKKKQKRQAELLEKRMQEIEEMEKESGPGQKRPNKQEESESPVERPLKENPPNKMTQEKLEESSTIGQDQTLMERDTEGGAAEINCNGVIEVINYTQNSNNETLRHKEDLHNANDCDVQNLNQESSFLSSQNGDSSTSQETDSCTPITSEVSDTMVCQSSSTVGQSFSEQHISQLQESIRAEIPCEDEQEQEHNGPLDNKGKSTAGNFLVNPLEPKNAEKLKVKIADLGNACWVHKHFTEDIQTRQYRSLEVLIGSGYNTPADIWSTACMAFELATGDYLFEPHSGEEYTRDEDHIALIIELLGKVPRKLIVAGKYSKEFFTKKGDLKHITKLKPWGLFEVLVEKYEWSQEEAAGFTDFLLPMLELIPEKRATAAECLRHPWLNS

| SMILES | residual kinase activity, CK2 [1] | residual kinase activity, SRPK1 [2] | residual kinase activity, Src [3] | residual kinase activity, JNK2 [4] | residual kinase activity, PKCγ [5] | residual kinase activity, TTK [6] | residual kinase activity, LKB1 [7] | residual kinase activity, Lck [8] | residual kinase activity, PKCz [9] | remaining activity at 100 µM [2] [%] | remaining activity at 100 µM [3] [%] | remaining activity at 100 µM [4] [%] | remaining activity at 100 µM [5] [%] | remaining activity at 100 µM [6] [%] | remaining activity at 100 µM [7] [%] | remaining activity at 100 µM [8] [%] | remaining activity at 100 µM [9] [%] |
| --- | --- | --- | --- | --- | --- | --- | --- | --- | --- | --- | --- | --- | --- | --- | --- | --- | --- |
| O=C(Nc1nc2cc(O)ccc2s1)c1ccncc1 [Compound 03-11] | 68 | 66 | 79 | 93 | 101 | 74 | 87 | 93 | 86 |  |  |  |  |  |  |  |  |
| O=C(Nc1nc2ccc(O)cc2s1)c1ccccn1 [Compound 03-12] | 57 | 63 | 105 | 101 | 143 | 36 | 64 | 82 | 88 |  |  |  |  |  |  |  |  |
| O=C(Nc1nc2cc(O)ccc2s1)c1ccccn1 [Compound 03-13] | 78 | 57 | 70 | 103 | 141 | 53 | 45 | 77 | 102 |  |  |  |  |  |  |  |  |
| COc1ccc2sc(NC(C)=O)nc2c1 [Compound 03-21] | 87 |  |  |  |  |  |  |  |  | 84 | 86 | 92 | 103 | 67 | 93 | 109 | 85 |
| CC(=O)Nc1nc2ccccc2s1 [Compound 03-32] | 96 | 59 | 113 | 105 | 94 | 71 | 97 | 91 | 126 |  |  |  |  |  |  |  |  |
| O=C(Nc1nc2cc(O)ccc2s1)c1cccnc1 [Compound 03-33] | 88 | 58 | 75 | 92 | 103 | 45 | 83 | 105 | 105 |  |  |  |  |  |  |  |  |
| O=C(Nc1nc2ccc(O)cc2s1)c1ccccc1 [Compound 03-60] | 16 | 3 | 33 | 107 | 83 | 19 | 68 | 92 | 80 |  |  |  |  |  |  |  |  |
| CC(=O)Nc1nc2cc(C(F)(F)F)ccc2s1 [Compound 03-73] | 105 |  |  |  |  |  |  |  |  | 72 | 74 | 111 | 106 | 86 | 98 | 101 | 97 |
| CC(=O)Nc1nc2cc(C)ccc2s1 [Compound 03-76] | 75 | 73 | 79 | 105 | 106 | 49 | 96 | 120 | 101 |  |  |  |  |  |  |  |  |
